According to patent publication US20260284082A1, “TARGETING THE PANX1-P2Y2R-TRPV4 PATHWAY TO TREAT LUNG ISCHEMIA-REPERFUSION INJURY” (UNIVERSITY OF VIRGINIA PATENT FOUNDATION, priority 2023, published 2026):

What was measured:
TRPV4EC channels = experiment: TRPV4 sparklet activity in endothelium of small PAs after lung IR (in presence of CPA); format: cell-based, mice
Procedure: Murine lung IR model: A well-established left lung IRI model involving temporary in vivo ligation of the left hilum (pulmonary artery, vein, and airway) was used.^6 Briefly, mice were anesthetized with inhaled isoflurane, intubated, ventilated with room air at 150 strokes/min with a tidal volume of […] (Harvard Apparatus Co, South Natick, MA), and heparinized (20 U/kg: Hospira Inc, Lake Forest, IL). An anterolateral thoracotomy was performed through the fourth intercostal space to expose the left hilum. A 6-0 Prolene suture (Ethicon. Somerville, NJ) was passed around the left hilum, and the suture ends were passed through a 5-mm length of polyethylene (PE)-50 tubing. A surgical clip was used to fashion a Rummel tourniquet to provide temporary occlusion of the left hilar structures. The thoracotomy was closed, anesthesia was weaned, and analgesia was administered (intraperitoneal buprenorphine. 0.2 mg/kg). Animals recovered in their cages during the 1-hour ischemic period, after which they were anesthetized again and intubated, the Rummel tourniquet was removed, and the thoracotomy was closed. Animals were again extubated, recovered in their cage, and monitored during the 2-hour reperfusion period. […]
(§1) Ca^2+ imaging in Pas: Ca^2+ imaging in small Pas was performed as previously described.8 Fourth-order, small (~50 μm diameter) Pas (see FIG. 1B) were dissected from left lungs in cold HEPES-buffered physiological salt solution (HEPES-PSS; 10 mM HEPES, 134 mM NaCl, 6 mM KCl, 1 mM MgCl2 hexahydrate, 2 mM CaCl2) dihydrate, and 7 mM dextrose; pH adjusted to 7.4 using 1 M NaOH). […] Fluo-4 was excited using a 488-nm solid-state laser, and emitted fluorescence was captured using a 525/36-nm band-pass filter. […] Baseline Ca^2+ signaling activity was recorded in the absence of CPA.
TRPV4 sparklets were assessed as increases in fluorescence relative to baseline fluorescence, obtained by averaging 10 quiescent images prior to stimulation. […]

[1] = system: pulmonary endothelium of small PAs; experiment: Baseline endothelial Ca2+ signaling in en face small PAs after lung IR (Fluo-4 confocal imaging); format: cell-based, mice
Procedure: Murine lung IR model: A well-established left lung IRI model involving temporary in vivo ligation of the left hilum (pulmonary artery, vein, and airway) was used.^6 Briefly, mice were anesthetized with inhaled isoflurane, intubated, ventilated with room air at 150 strokes/min with a tidal volume of […] (Harvard Apparatus Co, South Natick, MA), and heparinized (20 U/kg: Hospira Inc, Lake Forest, IL). An anterolateral thoracotomy was performed through the fourth intercostal space to expose the left hilum. A 6-0 Prolene suture (Ethicon. Somerville, NJ) was passed around the left hilum, and the suture ends were passed through a 5-mm length of polyethylene (PE)-50 tubing. A surgical clip was used to fashion a Rummel tourniquet to provide temporary occlusion of the left hilar structures. The thoracotomy was closed, anesthesia was weaned, and analgesia was administered (intraperitoneal buprenorphine. 0.2 mg/kg). Animals recovered in their cages during the 1-hour ischemic period, after which they were anesthetized again and intubated, the Rummel tourniquet was removed, and the thoracotomy was closed. Animals were again extubated, recovered in their cage, and monitored during the 2-hour reperfusion period. Sham animals underwent the same surgical procedure except that application of the Rummel tourniquet to induce ischemia was omitted; thus, these animals were perfused for a total of 3 hours.
as §1, with “CPA. […]” for “CPA.”

[2] = ARC 10 μmol/L, small PAs of C57BL6/J mice

Q: Which results are given for `Cc1ccc2c(c1)C=Cc1cc(C)ccc1C2c1cn(Cc2ccc(C(=O)Nc3nn[nH]n3)o2)c(=O)[nH]c1=S` [ARC, AR-C 118925XX]?
A: lung IR-induced increase in TRPV4EC sparklet activity (TRPV4EC channels; [2]): inhibited; lung IR-induced increase in baseline endothelial Ca2+ signaling activity [1, 2]: abolished

Q: With `O=C(NC1(c2ccccc2)CC1)c1c(CN2CCC(N3CCCCC3)CC2)c(-c2cccc(C(F)(F)F)c2)nc2cc(Br)ccc12` [GSK219, GSK2193874] as the compound, how does the “IR-induced increase in TRPV4EC sparklet activity” value (TRPV4EC channels; GSK219, CPA 20 μM present, small PAs after lung IR) read?
A: inhibited

Q: What about the “increase in baseline endothelial Ca2+ signals after lung IR” value ([1]; GSK219 100 nM, small PAs of control mice, 1 h ischemia + 2 h reperfusion) of the same compound?
A: completely abolished
